Literature values as cited in article PMC12281572.

assay: FTIR, 4-fluorophenol as donor (the pK_BHX database, per the paper); settings: CCl4; 25 C

SMILES	pK_BHX (log10 Kf of the 1:1 H-bond complex with 4-fluorophenol, by FTIR) [log units]
C1COCOC1	0.63
Fc1cccc(F)n1	0.14
C#CCN(C)C	1.6
CC(C)N(C)C	2.11
CS(=O)c1ccccc1 (stereo not drawn)	2.24
CC(=O)c1ccc(C(C)C)cc1	1.21
c1ccc(CNCc2ccccc2)cc1	1.34
CCOc1ccccc1	-0.01
O=COc1ccccc1	0.35
CN1CCCCCC1=O	2.53
COC(=O)N(c1ccccc1)c1ccccc1	1.41
N#CN1CCCCC1	1.58
CN(C)C=CC#N	1.7
O=C(c1ccccc1)c1ccccc1	1.07
CCN(C(C)C)C(C)C	1.05
COc1ccc(N(C)C(=Nc2ccc(C)cc2)c2ccccc2)cc1	1.63
CCCCNC	2.24
CCOC(C)=O	1.07
Clc1ccccn1	1.05
c1ccc2nc3ccccc3nc2c1	1.22
c1cncnc1	1.07

SMILES	pK_BHX (log10 Kf of the 1:1 H-bond complex with 4-fluorophenol, by FTIR) [log units]
CCCCC(=O)CCCC	1.21
O=S(c1ccc(Cl)cc1)c1ccc(Cl)cc1	1.68
Cc1ccccc1C	-0.27
CCOC(=O)C(C)C	1.09
C1CNCCN1	2.11
CNc1ccc(C)cc1	0.43
CCCN=C(NC)NC#N	2.09
C1=CCNCC1	2.16
Ic1cccnc1	1.37
NCc1cc(Cl)cc(Cl)c1	1.27
BrC1CC1	-0.47
Cc1cccc(NC(=Nc2ccccc2)c2ccccc2)c1	1.4
CC(C)(C)c1ccccn1	1.42
OCC(F)(F)F	-0.28
CCN(CC)C(C)=O	2.47
CN(C)C=NC(=S)c1ccccc1	1.23
CC(=O)c1ccccc1Cl	0.9
COCOC	0.58
CN(C)C(=O)c1ccc(F)cc1	2.14
NCc1cccc(F)c1	1.58
Oc1cccc(C(F)(F)F)c1	-0.36

SMILES	pK_BHX (log10 Kf of the 1:1 H-bond complex with 4-fluorophenol, by FTIR) [log units]
O=C1CCCCCCCCCCC1	1.23
COC(=O)c1ccc(OC)cc1	1.08
CN(C)c1ccc(C=O)cc1	1.53
Cc1cc(C)c(C)cc1C	-0.15
C1=COCCC1	0.41
c1ccnnc1	1.65
[O-][n+]1ccccc1	2.72
Cc1ccnc2c1ccc1c(C)ccnc12	3.34
Cn1cncc1Br	2.22
C=CCNCC=C	1.7
CCN(C)Cc1cccc(C(F)(F)F)c1	1.03
Cc1ccc(N=C(c2ccccc2)N(C)c2ccc(Br)cc2)cc1	1.42
C#CC(C)=O	0.68
CN(C)n1cccc1	0.23
CC(=Nc1ccccc1)Nc1ccc(C)cc1	1.85
O=c1cc(-c2ccccc2)oc2ccccc12	1.99
CN(N)c1ccncc1	2.58
Clc1ccc(N=CNc2ccc(Cl)cc2)cc1	1.63
Cc1ccc(N=CN(C)C)cc1	2.07
c1ccc(N=C(Nc2ccccc2)c2ccccc2)cc1	1.29
CCCCSCCCC	0.23

SMILES	pK_BHX (log10 Kf of the 1:1 H-bond complex with 4-fluorophenol, by FTIR) [log units]
Cc1cnc2c(ccc3c(C)c(C)cnc32)c1C	3.46
O	0.65
Cc1cccc(C)c1	-0.28
CC12CCC(CC1=S)C2(C)C (stereo not drawn)	0.34
C=Cc1ccncc1	1.95
COc1cccc(CN=CN(C)C)c1	2.4
O=[N+]([O-])c1cccc(N=C(Nc2ccccc2)c2ccccc2)c1	0.86
c1ccc(C2=NCCC2)cc1	1.98
CN(C)c1ccccn1	1.61
CCCCCCCCCCCCCCCCN	2.26
Brc1cccnc1	1.31
CNc1ccc(Cl)cc1	0.05
[O-][n+]1cc(Cl)cc(Cl)c1	1.56
CCCCCCCCN	2.27
O=C1CCCCCO1	1.63
Cc1ccc(C(=S)N(C)C)cc1	1.15
Cc1cc[n+]([O-])cc1	3.12
CCCCN(C=O)CCCC	2.17
C1N2CN3CN1CN(C2)C3	1.33
N#CN1CCOCC1	1.34
CN=CN(C)C	2.7
